Read-outs that look alike come from different tables or passages of the source.
Legend:
[1] = test system: human ES motor neurons carrying the ALS-causing SOD1^A4V mutation; experiment: cells; assay type: cell-based; settings: 72 h, 72 h; for EC50 / Emax: CPA 33 μM; for viability at 1 µM: CPA (33 μM) + compound (1 μM), read-out: Motor Neuron Survival, % untreated; for Emax: read-out: Emax (MN survival % untreated)
Protocol: Next, survival assays were performed with all the analogs at once to generate a low-variability dataset. All compounds were evaluated at concentrations ranging from 0.1-3.0 μM (five-point dilution) in three technical replicates and two biological replicates.

MLK1/MAP3K9 = biological target: T1, MLK1/MAP3K9 (Homo sapiens, UniProt P80192); experiment: Radiolabeled ATP kinase assay (Reaction Biology Corp.), MLK1; assay type: biochemical; settings: [Cmpd] 0.1 μM, 10 μM ATP
T1 construct: purchased Reaction Biology Corp
T1 sequence (P80192 whole entry): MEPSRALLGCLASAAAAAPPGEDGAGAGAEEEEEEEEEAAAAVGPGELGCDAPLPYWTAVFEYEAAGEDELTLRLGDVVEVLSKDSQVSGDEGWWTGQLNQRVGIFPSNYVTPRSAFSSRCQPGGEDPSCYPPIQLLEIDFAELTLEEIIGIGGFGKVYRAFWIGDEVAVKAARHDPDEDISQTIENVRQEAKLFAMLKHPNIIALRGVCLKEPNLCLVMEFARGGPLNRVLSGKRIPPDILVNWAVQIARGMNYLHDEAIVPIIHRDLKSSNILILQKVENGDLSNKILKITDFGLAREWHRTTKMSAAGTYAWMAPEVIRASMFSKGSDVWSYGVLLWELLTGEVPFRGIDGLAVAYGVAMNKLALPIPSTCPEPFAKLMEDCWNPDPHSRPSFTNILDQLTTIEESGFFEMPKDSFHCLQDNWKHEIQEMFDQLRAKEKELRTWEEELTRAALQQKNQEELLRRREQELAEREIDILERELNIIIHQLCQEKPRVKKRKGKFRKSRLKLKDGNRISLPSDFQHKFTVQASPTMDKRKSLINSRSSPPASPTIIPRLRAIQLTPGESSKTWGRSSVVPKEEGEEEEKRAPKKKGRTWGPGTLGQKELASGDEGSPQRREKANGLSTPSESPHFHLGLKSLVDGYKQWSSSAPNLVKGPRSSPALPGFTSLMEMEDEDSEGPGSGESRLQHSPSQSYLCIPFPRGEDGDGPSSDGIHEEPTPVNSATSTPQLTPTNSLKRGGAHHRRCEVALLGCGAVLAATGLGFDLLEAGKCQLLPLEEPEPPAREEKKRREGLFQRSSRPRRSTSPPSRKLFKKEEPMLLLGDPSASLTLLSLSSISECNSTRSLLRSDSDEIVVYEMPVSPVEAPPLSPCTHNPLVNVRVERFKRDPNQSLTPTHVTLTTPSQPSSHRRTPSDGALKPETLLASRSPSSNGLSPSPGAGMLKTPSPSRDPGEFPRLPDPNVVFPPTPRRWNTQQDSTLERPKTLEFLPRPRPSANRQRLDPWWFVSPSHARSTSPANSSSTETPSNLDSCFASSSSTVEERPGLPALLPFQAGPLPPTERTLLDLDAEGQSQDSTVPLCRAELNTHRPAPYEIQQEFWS
Protocol: (§1) Meanwhile, the same analogs were analyzed in a radiolabeled ATP assay (10 μM ATP; Reaction Biology Corp.) to compare the extent to which they could inhibit the activity of HGK, MLK1, or MLK3 in a cell-free environment (Table S3 and S4).

MLK3/MAP3K11 = biological target: T2, MLK3/MAP3K11 (Homo sapiens, UniProt Q16584); experiment: Radiolabeled ATP kinase assay (Reaction Biology Corp.), MLK3; assay type: biochemical; settings: [Cmpd] 0.1 μM; 10 μM ATP
T2 construct: purchased Reaction Biology Corp
T2 sequence (Q16584 whole entry): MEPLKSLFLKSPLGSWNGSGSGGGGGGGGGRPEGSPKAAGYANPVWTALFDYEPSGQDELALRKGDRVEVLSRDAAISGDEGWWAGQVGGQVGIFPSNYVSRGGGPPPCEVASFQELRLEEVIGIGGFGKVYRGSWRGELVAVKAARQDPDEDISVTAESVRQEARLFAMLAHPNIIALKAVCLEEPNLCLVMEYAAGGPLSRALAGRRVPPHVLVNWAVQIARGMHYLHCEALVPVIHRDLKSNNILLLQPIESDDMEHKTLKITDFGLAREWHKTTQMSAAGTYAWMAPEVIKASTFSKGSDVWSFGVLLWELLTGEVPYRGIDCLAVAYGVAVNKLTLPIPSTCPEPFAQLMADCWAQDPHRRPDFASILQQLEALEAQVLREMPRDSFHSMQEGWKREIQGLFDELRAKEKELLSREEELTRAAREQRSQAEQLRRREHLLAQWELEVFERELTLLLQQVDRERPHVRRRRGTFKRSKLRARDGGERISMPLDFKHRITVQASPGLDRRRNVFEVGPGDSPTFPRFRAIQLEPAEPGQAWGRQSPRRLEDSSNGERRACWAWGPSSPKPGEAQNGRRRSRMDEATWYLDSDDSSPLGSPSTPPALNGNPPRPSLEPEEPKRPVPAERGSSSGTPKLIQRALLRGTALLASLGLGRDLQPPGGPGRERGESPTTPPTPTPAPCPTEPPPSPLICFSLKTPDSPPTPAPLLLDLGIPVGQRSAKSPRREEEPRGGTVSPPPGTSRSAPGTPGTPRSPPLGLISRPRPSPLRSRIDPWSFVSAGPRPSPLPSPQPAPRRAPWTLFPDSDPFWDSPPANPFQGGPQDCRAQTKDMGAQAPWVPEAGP
Protocol: as §1

HGK/MAP4K4 = HGK/MAP4K4 (Homo sapiens, UniProt O95819); experiment: Radiolabeled ATP kinase assay (Reaction Biology Corp.), HGK; assay type: biochemical; set-up: purchased Reaction Biology Corp; settings: 10 μM ATP, read-out: % Enzyme Activity (relative to DMSO controls), HGK/MAP4K4, Data 1; for remaining activity at 0.025 µM: [Cmpd] 0.025 μM; for remaining activity at 0.1 µM: [Cmpd] 0.1 μM
Sequence of HGK/MAP4K4 (O95819 whole entry): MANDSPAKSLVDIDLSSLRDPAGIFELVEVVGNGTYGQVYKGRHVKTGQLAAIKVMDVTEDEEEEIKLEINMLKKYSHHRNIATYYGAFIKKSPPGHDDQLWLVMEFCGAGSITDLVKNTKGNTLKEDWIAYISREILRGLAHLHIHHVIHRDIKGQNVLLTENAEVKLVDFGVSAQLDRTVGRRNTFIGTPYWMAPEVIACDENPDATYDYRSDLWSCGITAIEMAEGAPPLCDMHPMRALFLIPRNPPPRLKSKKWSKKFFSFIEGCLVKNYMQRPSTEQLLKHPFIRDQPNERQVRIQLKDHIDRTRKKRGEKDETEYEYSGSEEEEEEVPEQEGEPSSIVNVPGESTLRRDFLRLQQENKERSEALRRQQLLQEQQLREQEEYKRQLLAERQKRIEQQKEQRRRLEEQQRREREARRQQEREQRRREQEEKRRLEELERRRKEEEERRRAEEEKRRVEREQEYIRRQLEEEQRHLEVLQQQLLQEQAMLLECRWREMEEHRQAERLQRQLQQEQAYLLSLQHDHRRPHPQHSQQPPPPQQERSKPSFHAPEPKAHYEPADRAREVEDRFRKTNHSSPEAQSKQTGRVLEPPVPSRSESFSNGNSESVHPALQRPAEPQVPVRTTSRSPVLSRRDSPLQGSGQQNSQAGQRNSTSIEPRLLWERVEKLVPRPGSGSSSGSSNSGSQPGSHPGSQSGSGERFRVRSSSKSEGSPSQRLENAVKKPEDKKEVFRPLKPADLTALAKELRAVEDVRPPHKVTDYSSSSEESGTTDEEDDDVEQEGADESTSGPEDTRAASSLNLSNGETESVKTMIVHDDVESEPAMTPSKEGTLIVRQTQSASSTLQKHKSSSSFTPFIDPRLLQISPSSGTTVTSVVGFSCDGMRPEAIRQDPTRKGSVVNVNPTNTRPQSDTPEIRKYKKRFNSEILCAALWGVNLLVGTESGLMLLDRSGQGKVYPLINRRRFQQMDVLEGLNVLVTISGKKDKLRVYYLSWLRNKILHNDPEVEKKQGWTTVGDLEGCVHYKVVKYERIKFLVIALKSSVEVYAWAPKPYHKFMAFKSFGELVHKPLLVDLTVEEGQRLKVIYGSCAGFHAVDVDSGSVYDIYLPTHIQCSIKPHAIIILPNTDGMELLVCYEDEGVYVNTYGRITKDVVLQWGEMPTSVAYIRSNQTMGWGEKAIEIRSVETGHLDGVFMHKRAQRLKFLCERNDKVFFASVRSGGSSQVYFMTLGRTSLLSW
Protocol: as §1

[2] = Homo sapiens, Neuron, read-out: EC50
[3] = read-out: % Enzyme Activity Remaining (relative to DMSO controls), MLK1/MAP3K9, Data 1
[4] = read-out: % Enzyme Activity Remaining (relative to DMSO controls), MLK1/MAP3K9, Data 2

Row | SMILES | EC50 [1, 2] | viability at 1 µM ([1]; Homo sapiens, Neuron) | Emax ([1]; Homo sapiens, Neuron) | remaining activity at 0.1 µM (MLK1/MAP3K9; [3]) | remaining activity at 0.1 µM (MLK1/MAP3K9; [4]) | % Enzyme Activity Remaining (relative to DMSO controls), MLK3/MAP3K11, Data 1 (MLK3/MAP3K11) | % Enzyme Activity Remaining (relative to DMSO controls), MLK3/MAP3K11, Data 2 (MLK3/MAP3K11) | remaining activity at 0.025 µM (HGK/MAP4K4) | remaining activity at 0.1 µM (HGK/MAP4K4) | EC50 [1]
1 | CCOc1ccc(-c2c[nH]c3ncc(-c4ccc(CN5CCN(C)CC5)cc4)cc23)cn1 [Compound 7b, 3-(6-Ethoxypyridin-3-yl)-5-(4-((4-methylpiperazin-1-yl)methyl)phenyl)-1H-pyrrolo[2,3-b]pyridine] | 496 nM | 52.3% | 52.3% | 89.2% | 87.8% | 86.71% | 86.95% | 77.6% | 42.8% | –
2 | CN1CCN(Cc2ccc(-c3cnc4[nH]cc(-c5cccc6c5oc5ccccc56)c4c3)cc2)CC1 [Compound 7c, 3-(Dibenzo[b,d]furan-4-yl)-5-(4-((4-methylpiperazin-1-yl)methyl)phenyl)-1H-pyrrolo[2,3-b]pyridine] | – | 7.84% | 10.4% | 88.3% | 86.8% | 90.01% | 93.44% | 99.3% | 81.6% | Ambiguous
3 | CN1CCN(Cc2ccc(-c3cnc4[nH]cc(-c5ccc(N)cc5)c4c3)cc2)CC1 [Compound 7e, 4-(5-(4-((4-Methylpiperazin-1-yl)methyl)phenyl)-1H-pyrrolo[2,3-b]pyridin-3-yl)aniline] | 228 nM | 96.1% | 111% | 51.7% | 54% | 51.43% | 54.29% | 24% | 7.41% | –
4 | CN1CCN(Cc2ccc(-c3cnc4[nH]cc(-c5csc6ccccc56)c4c3)cc2)CC1 [Compound 7f, 3-(Benzo[b]thiophen-3-yl)-5-(4-((4-methylpiperazin-1-yl)methyl)phenyl)-1H-pyrrolo[2,3-b]pyridine] | 338 nM | 68.3% | 68.3% | 81.1% | 76.5% | 68.84% | 73.51% | 23.2% | 4.89% | –
5 | CN1CCN(Cc2ccc(-c3cnc4[nH]cc(-c5cccc(N)c5)c4c3)cc2)CC1 [Compound 7h, 3-(5-(4-((4-Methylpiperazin-1-yl)methyl)phenyl)-1H-pyrrolo[2,3-b]pyridin-3-yl)aniline] | 177 nM | 106% | 115% | 48.8% | 43.2% | 62.91% | 63.31% | 98.8% | 87.4% | –
6 | CN1CCN(Cc2ccc(-c3cnc4[nH]cc(-c5ccc(F)c(C(=O)O)c5)c4c3)cc2)CC1 [Compound 7i, 2-Fluoro-5-(5-(4-((4-methylpiperazin-1-yl)methyl)phenyl)-1H-pyrrolo[2,3-b]pyridin-3-yl)benzoic acid] | – | 7.82% | 13.3% | 80.2% | 79.4% | 57.91% | 50.75% | 85.3% | 54.6% | Ambiguous
7 | CN1CCN(Cc2ccc(-c3cnc4[nH]cc(-c5cnc(N)nc5)c4c3)cc2)CC1 [Compound 7k, 5-(5-(4-((4-Methylpiperazin-1-yl)methyl)phenyl)-1H-pyrrolo[2,3-b]pyridin-3-yl)pyrimidin-2-amine] | 316 nM | 71% | 71% | 69% | 70.8% | 71.64% | 75.32% | 48.3% | 16.5% | –
8 | Cc1cc(-c2c[nH]c3ncc(-c4ccc(CN5CCN(C)CC5)cc4)cc23)cnc1N [Compound 7l, 3-Methyl-5-(5-(4-((4-methylpiperazin-1-yl)methyl)phenyl)-1H-pyrrolo[2,3-b]pyridin-3-yl)pyridin-2-amine] | 177 nM | 106% | 106% | 53.2% | 52.4% | 58.50% | 57.04% | 27% | 5.45% | –
9 | CN1CCN(Cc2ccc(-c3cnc4[nH]cc(-c5ccc(N)nc5)c4c3)cc2)CC1 [Compound 7m, 5-(5-(4-((4-Methylpiperazin-1-yl)methyl)phenyl)-1H-pyrrolo[2,3-b]pyridin-3-yl)pyridin-2-amine] | 213 nM | 76.1% | 76.1% | 96.7% | 96.3% | 67.62% | 67.85% | 38.4% | 10.8% | –
10 | CN1CCN(Cc2ccc(-c3cnc4[nH]cc(-c5ccc(C#N)cc5)c4c3)cc2)CC1 [Compound 7o, 4-(5-(4-((4-Methylpiperazin-1-yl)methyl)phenyl)-1H-pyrrolo[2,3-b]pyridin-3-yl)benzonitrile] | 775 nM | 49.7% | 68.6% | 93.4% | 90.7% | 90.12% | 92.65% | 58.9% | 29.3% | –
11 | CN1CCN(Cc2ccc(-c3cnc4[nH]cc(-c5cccc([N+](=O)[O-])c5)c4c3)cc2)CC1 [Compound 7p, 5-(4-((4-Methylpiperazin-1-yl)methyl)phenyl)-3-(3-nitrophenyl)-1H-pyrrolo[2,3-b]pyridine] | 293 nM | 116% | 131% | 62.7% | 62.9% | 40.84% | 42.08% | 3.92% | 1.56% | –
12 | CN1CCN(Cc2ccc(-c3cnc4[nH]cc(-c5cnn(C)c5)c4c3)cc2)CC1 [Compound 7s, 3-(1-Methyl-1H-pyrazol-4-yl)-5-(4-((4-methylpiperazin-1-yl)methyl)phenyl)-1H-pyrrolo[2,3-b]pyridine] | 2190 nM | 42.9% | 100% | 94.8% | 94.3% | 90.97% | 90.45% | 77.8% | 37% | –
13 | CN1CCN(Cc2ccc(-c3cnc4[nH]cc(-c5ccc(CN6CCOCC6)s5)c4c3)cc2)CC1 [Compound 7t, 4-((5-(5-(4-((4-Methylpiperazin-1-yl)methyl)phenyl)-1H-pyrrolo[2,3-b]pyridin-3-yl)thiophen-2-yl)methyl)morpholine] | 1380 nM | 43.6% | 77.3% | 82.1% | 80% | 83.49% | 78.30% | 74.3% | 33.4% | –
14 | CN1CCN(Cc2ccc(-c3cnc4[nH]cc(-c5ccc(S(C)(=O)=O)nc5)c4c3)cc2)CC1 [Compound 7u, 5-(4-((4-Methylpiperazin-1-yl)methyl)phenyl)-3-(6-(methylsulfonyl)pyridin-3-yl)-1H-pyrrolo[2,3-b]pyridine] | 4600 nM | 33% | 72.9% | 93.9% | 95.9% | 92.02% | 90.70% | 92.9% | 52.3% | –
15 | CN1CCN(Cc2ccc(-c3cnc4[nH]cc(-c5ccc6[nH]ncc6c5)c4c3)cc2)CC1 [Compound 7v, 5-(5-(4-((4-Methylpiperazin-1-yl)methyl)phenyl)-1H-pyrrolo[2,3-b]pyridin-3-yl)-1H-indazole] | 143 nM | 115% | 128% | 43% | 44% | 33.57% | 32.45% | 13.8% | 2.9% | –
